Values quoted from earlier work in patent US20210213091A1, “LIPOPHILIC ACTIVE AGENT INFUSED TOBACCO LEAVES AND/OR TOBACCO MATERIALS AND METHODS OF USE THEREOF” (priority 2018, published 2021).

**Q.** With `CC1=CC[C@H]2C[C@@H]1C2(C)C` [α-Pinene, (1S,5S)-2,6,6-Trimethylbicyclo[3.1.1]hept-2-ene] as the compound, how does the human pulmonary uptake read?
**A.** 60%
